Experimental data: patent publication US5407950A, “Arylalkanoylamine derivative and drug containing the same” (priority 1990, dated 1995)
Read-outs that look alike come from different tables or passages of the source.

Legend:
ICR mice = experiment: Toxicity test; Parenteral administration (Test Example 4); type: in vivo; settings: 300 mg/kg parenteral, 7 days observation
Experimental: Test Example 4 (Toxicity test; Parenteral administration)
Ten ICR mice (Charles River, Co.), male, aged 4 to 5 weeks, were employed per group. The compounds of Examples 1, 5, 8 and 12 were separately suspended in 10% gum arabic, and then, they were individually administered parenterally at a dose of 300 mg/kg for subsequent observation for 7 days. As a result, no death was counted under the above conditions.

[1] = target: T1, prolyl endopeptidase from canine brain (Canis lupus familiaris, UniProt A0A8I3N6C8); experiment: Inhibitory activity against prolyl endopeptidase from brain (Test Example 1); type: biochemical
T1 construct: A prolyl endopeptidase was prepared from canine brains; from tissue; host or cells: canine brain
T1 sequence (A0A8I3N6C8 1-710): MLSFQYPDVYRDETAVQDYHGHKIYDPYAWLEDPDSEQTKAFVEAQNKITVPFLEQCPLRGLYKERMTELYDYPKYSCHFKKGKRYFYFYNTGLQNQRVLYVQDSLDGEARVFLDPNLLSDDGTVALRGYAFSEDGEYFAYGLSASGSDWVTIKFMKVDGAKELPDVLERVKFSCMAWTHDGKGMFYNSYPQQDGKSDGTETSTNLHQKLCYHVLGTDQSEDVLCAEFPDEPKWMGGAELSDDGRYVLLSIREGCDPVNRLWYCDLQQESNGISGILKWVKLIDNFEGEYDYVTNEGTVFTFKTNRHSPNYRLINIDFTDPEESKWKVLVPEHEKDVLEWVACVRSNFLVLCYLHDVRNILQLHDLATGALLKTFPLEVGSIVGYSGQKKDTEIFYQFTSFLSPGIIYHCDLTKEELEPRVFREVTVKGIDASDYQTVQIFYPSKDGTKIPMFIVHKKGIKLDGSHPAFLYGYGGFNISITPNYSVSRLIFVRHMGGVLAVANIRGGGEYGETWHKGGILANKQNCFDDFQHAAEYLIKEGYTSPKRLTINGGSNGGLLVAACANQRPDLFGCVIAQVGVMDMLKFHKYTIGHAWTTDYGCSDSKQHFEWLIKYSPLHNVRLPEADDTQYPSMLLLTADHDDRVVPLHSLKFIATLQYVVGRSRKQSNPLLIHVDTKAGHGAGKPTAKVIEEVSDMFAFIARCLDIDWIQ
Experimental: Following buffer solutions A and B were used for the measurement.
Buffer A: 20 mM Tris-HCl buffer (pH 7.0)
Buffer B: Buffer A containing 0.1% gelatin, 1 mM EDTA, 1 mM 2-mercaptoethanol.
Dilution of the prolyl endopeptidase preparation with Buffer B to a concentration of 0.4 units/ml was done, and the resulting solution was defined as enzyme solution. To 940 μl of Buffer A was added 50 μl of the enzyme solution, followed by incubating at 37° C. for 10 minutes, to which was added 10 μl of a solution of a sample compound dissolved in dimethyl sulfoxide, and stirred and mixed together, followed by staying at 37° C. for ten minutes. To the mixture was added 100 μl of carbobenzoxyglycylprolyl p-nitroanilide dissolved in 40% dioxane to a final concentration of 2.5 mM, for reaction at 37° C. for 10 minutes, to which was added 100 μl of 50% acetic acid containing 10% Triton X-100, thereby terminating the reaction.
For controls, dimethyl sulfoxide was added at the same amount (10 μl) instead of the solution of the sample compound; for blind tests, dimethyl sulfoxide and Buffer B were added instead of a sample compound and the enzyme solution, respectively, at the same amounts for effecting the same procedure.

ICR male mice = experiment: Anti-hypoxic activity (Test Example 2), survival time under 4% O2 / 96% N2; type: in vivo; settings: 100 mg/kg, intraperitoneal, 30 min before gas; control = 100
Experimental: Groups of ICR male mice (Charles River Co.), age 4 to 5 weeks, each group consisting of 10 mice and each mouse having been fasted for 24 hours, were used for the test. Mice were placed in a transparent desiccator (diameter: 19 cm, height: 30 cm) made of synthetic resin and having 2 valves, one at the upper portion and the other at the lower portion, for replacing the gas therein. […] The time measured was taken as the survival time.
Each tested compound suspended in an solvent was intraperitoneally administered 30 minutes before the start of the mixed gas feeding. A group of mice to which only the solvent was intraperitoneally administered was used as a control.
The anti-hypoxic activity was determined according to the following equation: [formula]

Male ICR mice = experiment: Toxicity test; Oral administration (Test Example 5); type: in vivo; settings: 1,000 mg/kg oral, 7 days observation
Experimental: Test Example 5 (Toxicity test; Oral administration)
Five male ICR mice (Charles River, Co.) of age 5 weeks, were employed per group. The compound of Example 22 was suspended in a solvent, which was then administered orally at a dose of 1,000 mg/kg for subsequent observation for 7 days. As a result, no death was counted under the above conditions.

[2] = canine brain enzyme, carbobenzoxyglycylprolyl p-nitroanilide substrate, 37° C., pH 7.0, read-out: Inhibition Potency IC50

Structure (SMILES)	death within 7 days (parenteral) (ICR mice)	IC50 [1, 2]	Anti-hypoxic Activity (ICR male mice)	further results
O=C[C@@H]1CSCN1C(=O)[C@@H]1CCCN1C(=O)c1cc2ccccc2o1 [Example 12, 3-[1-(benzofuran-2-ylcarbonyl)-L-prolyl]-L-thioprolinal]	no death	–	–	–
O=C[C@@H]1CCCN1C(=O)[C@@H]1CCCN1C(=O)c1cc2ccccc2o1 [Example 11, 1-[1-(benzofuran-2-ylcarbonyl)-L-prolyl]-L-prolinal]	–	0.069 µM	–	–
O=C([C@@H]1CSCN1C(=O)CC1Cc2ccccc2C1)N1CCC[C@H]1CO [Example 1, 1-[3-(Indan-2-ylacetyl)-L-thioprolyl]-L-prolinol]	no death	–	–	–
O=C([C@@H]1CCCN1C(=O)c1cc2ccccc2o1)N1CCC[C@H]1CO [Example 6, 1-[1-(benzofuran-2-ylcarbonyl)-L-prolyl]-L-prolinol]	–	–	128%	–
O=C[C@@H]1CSCN1C(=O)[C@@H]1CCCN1C(=O)CC1Cc2ccccc2C1 [Example 8, 3-[1-(indan-2-ylacetyl)-L-prolyl]-L-thioprolinal]	no death	0.0012 µM	120%	–
O=C([C@@H]1CSCN1C(=O)C[C@H]1CCc2ccccc2C1)N1CCC[C@H]1C=NO [Example 25, (2S)-1-[3-((S)-1,2,3,4-Tetrahydronaphthalen-2-ylacetyl)-L-thioprolyl]-2-pyrrolidine aldoxime]	–	0.016 µM	–	–
O=C[C@@H]1CCCN1C(=O)[C@@H]1CSCN1C(=O)C[C@H]1CCc2ccccc2C1 [Example 9, 1-[3-((S)-1,2,3,4-tetrahydronaphthalen-2-ylacetyl)-L-thioprolyl]-L-prolinal]	–	–	123%	death within 7 days (oral) (Male ICR mice): no death
O=C([C@@H]1CSCN1C(=O)C[C@H]1CCc2ccccc2C1)N1CSC[C@H]1CO [Example 5, 3-[3-((S)-1,2,3,4-tetrahydronaphthalen 2-ylacetyl)-L-thioprolyl]-L-thioprolinol]	no death	–	115%	–
O=C[C@@H]1CSCN1C(=O)[C@@H]1CSCN1C(=O)C[C@H]1CCc2ccccc2C1 [Example 10, 3-[3-((S)-1,2,3,4-tetrahydronaphthalen-2-ylacetyl)-L-thioprolyl]-L-thioprolinal]	–	0.0014 µM	129%	–
O=C[C@@H]1CCCN1C(=O)[C@@H]1CSCN1C(=O)CC1Cc2ccccc2C1 [Example 2, 1-[3-(Indan-2-ylacetyl)-L-thioprolyl]-L-prolinal]	–	–	120%	–
COc1ccc(C(=O)N2CCCC2=O)cc1 [Aniracetam, reference compound]	–	–	115%	IC50 [1]: > 1000 µM
